Laboratory results from patent US20050180962A1, “Inactivated probiotic bacteria and methods of use thereof” (priority 2003, published 2005).

Columns and labels:
[1] = tested on: DSS-induced colitis; assay: DSS-induced colitis (DSS 3.5% in drinking water, 7 days); type: in vivo, Balb/c mice; set-up: key to Histological Score: summed histological score, 0 (minimum) to 20 (maximum); details: for Disease Activity Score / Histological Score / MPO: mean±SEM
Description: To induce dextran sodium sulfate (DSS) colitis, DSS (Sigma) was given in the drinking water for 7 days. Preliminary studies were performed to identify the concentration of DSS in the drinking water required to elicit a similar disease activity score in different mouse strains.
(§1) Mice were sacrificed 7 days after the induction of colitis. All studies were performed in a blind fashion.
Probiotics, including live probiotics, irradiated probiotics, and heat killed probiotics, were intragastrically (i.g.) given starting 10 days prior to the induction of colitis and for 7 days thereafter. In preliminary studies, mice were treated daily by i.g. administration of 0.28×10^8, 2.8×10^8 or 28×10^8 CFU of irradiated probiotics per mouse per day.
(§2) In another experiment 50 μg of these DNA preparations were administered i.g. or intrarectally (i.r.) 2 hrs prior to DSS administration. In the IL-10 deficient colitis model, ten-week old mice were treated s.c. once a week with the various DNA preparations (see above), and this treatment continued for 4 weeks as described (Rachmilewitz et al. (2002) supra). The disease-activity score, histological score, and colonic myeloperoxidase (MPO) activity were determined as described (Rachmilewitz et al. (2002) supra).
A mouse model of colitis was used and assessed, as described. Rachmilewitz et al. (2002) Gastroenterology 122:1428-1441. Colitis was induced by adding dextran sodium sulfate (DSS, Sigma), 3.5% to the drinking water, and allowing them to drink ad libitum. Seven days after induction of colitis, mice were weighed and inspected for diarrhea and rectal bleeding. The mice were sacrificed, and the entire colon was dissected and its length measured and weighed. Scores were again defined as follows: Changes in body weight: No loss—0; 5 to 10%—1; […], —2; 15 to 20%, —3; >20%—4. Hemoccult: No blood, —0; positive, —2; gross blood, —4. Mucosal samples were processed for determination of MPO activity according to: Bradley (1982) J Invest Dermatol 78:206-9.
When indicated, sections from the distal colon were fixed in buffered formalin and routine 5 μm sections were prepared and stained with hematoxylin and eosin. Stained sections were examined blindly and scored. The scoring system took into account the depth of the ulcer, the extent of the ulcer, presence of inflammation, extent of inflammation, and location of fibrosis. Minimal score was 0 and maximal score was 20. Scoring was as follows for depth of the ulcer: 0=no ulcer; 1—mucosal involvement; 2—mucosal+submucosal involvement; 3=penetration of muscularis propria; 4=full thickness involvement. Scoring was as follows for extent of the ulcer: 0=no ulcer; 1=punctate; 2=minimal; 3=moderate; 4=widespread. Scoring was as follows for presence of inflammation: 0=none; 1=minimal; 2=mild; 3=moderate; 4=severe. Scoring was as follows for extent of inflammation: 0=none; 1=mucosal; 2=mucosal+submucosal involvement; 3=mucosal+submucosal+muscle penetration; 4=full thickness involvement. Scoring was as follows for location of fibrosis: 0=none; 1=mucosa only; 2=mucosa+submucosa; 3=including muscle layer; 4=full thickness fibrosis.
Fifty mg colonic mucosal scrapings were homogenized with a polytron (Kinematica GmbH, Krienz-Luzem, Switzerland) in ice-cold hexadecyltrimethyl ammonium bromide (0.5%) in 50 mM phosphate buffer, pH 6.0. The homogenate was sonicated for 10 seconds, freeze-thawed three times, and centrifuged for 15 minutes. An aliquot of the supernatant was taken for determination of myeloperoxidase (MPO) enzyme activity, as described (Rachmilewitz et al. (2002) supra).

[2] = tested on: TNBS-induced colitis; assay: TNBS-induced colitis; type: in vivo, Balb/c mice; details: s.c. once 2 hours before TNBS; day 7; mean±SEM
Description: Trinitrobenzenesulfonic acid (TNBS) colitis was induced in 8 week old, Balb/c mice by rectal instillation of 0.5 mg/mouse of 2,4,6-trinitrobenzene sulfonic acid (Sigma) dissolved in 0.1 ml of 50% ethanol as described. Rachmilewitz et al. (2002), supra.
as §1
as §2, with “Various DNA preparations (ISS-ODN and control-ODN, 30 μg/mouse; probiotic DNA, methylated probiotic DNA, E. coli DNA and calf thymus DNA, 50 μg/mouse) and DNase treated probiotics (i.e., the amount of microorganisms that yielded 50 μg of probiotic DNA) were s.c. injected 2 hrs prior to the administration of DSS or TNBS. In another” for “In another”

[3] = tested on: chronic DSS-induced colitis; assay: Chronic DSS-induced colitis (treatment model); type: in vivo, Balb/c mice
Description: To evaluate whether probiotics are effective not only in the prevention but also in the treatment of colitis the following experiment was performed: Mice were treated for 7 days with DSS 3.5% added to the drinking water. From the 8th day until sacrifice on day 15, the concentration of DSS in the drinking water was reduced to 1.75%. During the 15 days of the experiment, 2 groups of mice were treated daily i.g. with viable or with irradiated probiotics 2.8×10^8 CFU. A third group was treated s.c. on day 8 with ISS-ODN (10 μg) and a fourth control group was treated i.g. daily with 0.2 ml of saline. […] The colon was isolated, weighed, sections were taken for histology and mucosal samples were obtained for MPO determination.

[4] = tested on: spontaneous colitis in IL-10 KO mice; assay: Spontaneous colitis in IL-10 KO mice; type: in vivo, IL-10 KO mice (B6); details: s.c. once a week for 4 weeks; mean±SEM
Description: as §2, with “Various DNA preparations (ISS-ODN and control-ODN, 30 μg/mouse; probiotic DNA, methylated probiotic DNA, E. coli DNA and calf thymus DNA, 50 μg/mouse) and DNase treated probiotics (i.e., the amount of microorganisms that yielded 50 μg of probiotic DNA) were s.c. injected 2 hrs prior to the administration of DSS or TNBS. In another” for “In another”

[5] = tested on: TLR9; assay: IL-12 (p40) and IL-6 secretion by macrophages (ELISA); type: cell-based, mice; details: TLR9 null macrophages, 24 hours post-stimulation
[6] = tested on: commensal flora; assay: Effect of chloroquine on stool flora of mice; type: in vivo; details: 10 mg/kg s.c. daily for 7 days versus saline
Description: Control group was treated s.c. daily with 0.2 ml of saline. After 7 days, stool samples were collected, homogenized and cultured on blood, Maconkey, phenylethanol, chocolate, M.R.S., and anaerobic agars.

[7] = i.g., 50 μg once 2 hours before DSS
[8] = i.r., 50 μg once 2 hours before DSS
[9] = s.c. once 2 hours before DSS, ODNs 30 μg/mouse, DNAs 50 μg/mouse
[10] = DSS 3.5% 7 days then 1.75% 7 days, probiotics 2.8×10^8 CFU i.g. daily, ISS-ODN 10 μg s.c. day 8, day 15, mean±SEM

5′-TGACTGTGAACGTTCGAGATGA-3′ [ISS-ODN]
Disease Activity Score [1, 7]: 3.6 ± 0.7 | Histological Score [1, 7]: 2.8 ± 0.6 | MPO [1, 7]: 1.09 ± 0.10 U/gr | outcome of colitis ([1]; i.r. administration, once 2 hrs before DSS): had no effect | Disease Activity Score [1, 8]: 6.3 ± 0.7 | Histological Score [1, 8]: 5.9 ± 0.7 | MPO [1, 8]: 1.90 ± 0.30 U/gr | severity of DSS-induced colitis ([1]; intragastric or s.c. administration, once 2 hrs before DSS): inhibited the severity | Disease Activity Score [1, 9]: 0.4 ± 0.4 | Histological Score [1, 9]: 0 ± 0 | MPO [1, 9]: 0.9 ± 0.1 U/gr | Disease Activity Score [2]: 0.4 ± 0.3 | Histological Score [2]: 0 ± 0 | MPO [2]: 0.8 ± 0.10 U/gr | Disease Activity Score [3, 10]: 1.1 ± 0.4 | Histological Score [3, 10]: 6.9 ± 0.8 | MPO [3, 10]: 1.25 ± 0.19 U/gr | severity of chronic DSS induced colitis ([3]; given with or after induction of colitis): equally attenuate the severity | Histological Score [4]: 1.8 ± 1.2 | MPO [4]: 0.8 ± 0.10 U/gr | secretion of p40 or IL-6 [5]: did not induce

CCN(CC)CCCC(C)Nc1ccnc2cc(Cl)ccc12 (stereo not drawn) [Chloroquine, chloroquine]
MPO ([1]; colonic MPO, probiotics 2.8×10^8 CFU i.g. daily, chloroquine 10 mg/kg s.c. daily, DSS 3.5% 7 days): 1.54 ± 0.16 U/gr | Histological Score ([1]; probiotics 2.8×10^8 CFU i.g. daily, chloroquine 10 mg/kg s.c. daily, DSS 3.5% 7 days): 8.0 ± 0.8 | identity or quantity of bacterial strains grown from the stool [6]: No significant differences

5′-TGACTGTG AAGGTTAGAGATGA-3 (DNA TGACTGTGAAGGTTAGAGATGA; DNA, all phosphorothioate, methylation of C not given here) [Control-ODN]
Disease Activity Score [1, 7]: 6.7 ± 0.8 | Histological Score [1, 7]: 5.7 ± 0.3 | MPO [1, 7]: 1.90 ± 0.20 U/gr | Disease Activity Score [1, 9]: 3.8 ± 0.7 | Histological Score [1, 9]: 8.0 ± 0.9 | MPO [1, 9]: 4.2 ± 0.8 U/gr | Disease Activity Score [2]: 1.3 ± 0.2 | Histological Score [2]: 4.8 ± 1.8 | MPO [2]: 2.00 ± 0.30 U/gr
